According to patent publication US20200017495A1, “NOVEL HETEROCYCLIC COMPOUNDS AND THEIR USE IN PREVENTING OR TREATING BACTERIAL INFECTIONS” (priority 2017, published 2020):

Assays:
[1] = tested on: Klebsiella pneumoniae (KPN) isolates; assay: MIC of compounds alone and combined with antibacterials, broth microdilution (CLSI); assay type: cell-based
Method in brief: (§1)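 Antibacterial MICs in combination were determined at every compound concentration tested, alongside compound MICs alone. Bacteria grew in cation-adjusted Mueller-Hinton broth starting from 5.10^5 CFU/mL, incubated at 35° C for 16-20 h, and endpoints were the lowest concentrations with no visible growth.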

[2] = tested on: Escherichia coli (ECO) isolates; assay: as above; assay type: cell-based
Method in brief: as §1

Structure (SMILES): CO/N=C(\C(=O)N[C@@H]1C(=O)N2C(C(=O)O)=C(COC(N)=O)CS[C@H]12)c1ccco1 [FUR, Cefuroxime]
- MIC ([1]; strain KPN 6299, genotype TEM-1, SHV-11, OXA-163): >512 µg/mL
- MIC ([1]; strain KPN 110376, genotype TEM-1, SHV-1, CTX-M-15, OXA-1, OXA-48): >256 µg/mL
- MIC ([1]; strain KPN 121206, genotype SHV-1, NDM-1): >256 µg/mL
- MIC ([1]; strain KPN 131119, genotype TEM-1, SHV-11, CTX-M-15, OXA-1, OXA-48): >256 µg/mL
- MIC ([1]; strain KPN 140513, genotype TEM-1, SHV-11, CTX-M-15, KPC-3): >256 µg/mL
- MIC ([1]; strain KPN 160143, genotype TEM-1, SHV-1, CTX-M-15, KPC-2, OXA-1): >256 µg/mL
- MIC ([1]; strain KPN 190128, genotype TEM-1, SHV-32, CTX-M-15, OXA-1): >256 µg/mL
- MIC ([1]; strain KPN 190270, genotype TEM-1, SHV-76, CTX-M-15, OXA-1): >256 µg/mL
- MIC ([1]; strain KPN 190425, genotype TEM-1, SHV-1, CTX-M-15, OXA-1): >256 µg/mL
- MIC ([1]; strain KPN 190551, genotype TEM-1, SHV-1, CTX-M-15, OXA-1): >256 µg/mL
- MIC ([1]; strain KPN 200047, genotype TEM-1, SHV-32, CTX-M-15, OXA-1): >256 µg/mL
- MIC ([1]; strain KPN 200327, genotype TEM-1, SHV-1, CTX-M-15, OXA-1): >256 µg/mL
- MIC ([1]; strain KPN 260251, genotype TEM-1, SHV-11, SHV-12, CTX-M-15, KPC-2): >256 µg/mL
- MIC ([1]; strain KPN 260252, genotype TEM-1, SHV-11, KPC-3): >256 µg/mL
- MIC ([1]; strain KPN 260376, genotype SHV-1, SHV-49, OXA-1): >256 µg/mL
- MIC ([1]; strain KPN 270077, genotype TEM-1, SHV-1, CTX-M-15): >256 µg/mL
- MIC ([1]; strain KPN 700603, genotype SHV-18, OXA-2): 32 µg/mL
- MIC ([1]; strain KPN ARA, genotype TEM-1, SHV-11, CTX-M-15, OXA-1, OXA-48): >256 µg/mL
- MIC ([1]; strain KPN BAA-1898, genotype TEM-1, SHV-11, SHV-12, KPC-2): >512 µg/mL
- MIC ([1]; strain KPN LIB, genotype SHV-11, OXA-48): 16 µg/mL
- MIC ([1]; strain KPN UFR22_O, genotype TEM-1, SHV-1, OXA-48): 32 µg/mL
- MIC ([1]; strain KPN UFR23, genotype TEM-1, SHV-1, OXA-48): 8 µg/mL
- MIC ([1]; strain KPN UFR24, genotype TEM-1, SHV-2, SHV-11, OXA-1, OXA-48, OXA-47): 128 µg/mL
- MIC ([1]; strain KPN UFR25, genotype TEM-1, SHV-11, CTX-M-15, OXA-162): >256 µg/mL
- MIC ([1]; strain KPN UFR27, genotype TEM-1, SHV-28, CTX-M-15, OXA-204): >256 µg/mL
- MIC ([1]; strain KPN UFR28, genotype TEM-1, SHV-1, CTX-M-15, OXA-1, OXA-232): >256 µg/mL
- MIC ([1]; strain KPN UFR42, genotype SHV-2, CTX-M-15 OXA-1, OXA-181, NDM-1): >256 µg/mL
- MIC ([1]; strain KPN UFR65, genotype TEM-1, SHV-11, KPC-2): >256 µg/mL
- MIC ([1]; strain KPN UFR66, genotype TEM-1, SHV-11, CTX-M-15, KPC-2): >256 µg/mL
- MIC ([1]; strain KPN UFR67, genotype TEM-1, SHV-11, KPC-3): >256 µg/mL
- MIC ([1]; strain KPN UFR68, genotype TEM-1, SHV-11, CTX-M-15, KPC-3): >256 µg/mL
- MIC ([1]; strain KPN UFR76, genotype TEM-155, SHV-11, ACT-1, OXA-2): >256 µg/mL
- MIC ([1]; strain KPN UFR77, genotype CMY-2): 64 µg/mL
- MIC ([1]; strain KPN UFR78, genotype TEM-1, SHV-1, CTX-M-15, CMY-2, OXA-1, OXA-48): >256 µg/mL
- MIC ([1]; strain KPN UFR79, genotype DHA-1, OXA-1): >256 µg/mL
- MIC ([1]; strain KPN UFR80, genotype SHV-11, DHA-1, OXA-1): 32 µg/mL
- MIC ([1]; strain KPN UFR81, genotype TEM-1, SHV-1, DHA-1, OXA-48): >256 µg/mL
- MIC ([1]; strain KPN UFR215, genotype SHV-27, CTX-M-15): >256 µg/mL
- MIC ([1]; strain KPN UFR216, genotype SHV-28, CTX-M-15): >256 µg/mL
- MIC ([1]; strain KPN UFR217, genotype TEM-1, SHV-1, CTX-M-15): >256 µg/mL
- MIC ([1]; strain KPN UFR219, genotype SHV-12, CTX-M-15): >256 µg/mL
- MIC ([1]; strain KPN UFR220, genotype TEM-1, SHV-12, DHA-1): >256 µg/mL
- MIC ([1]; strain KPN UFR221, genotype TEM-1, SHV-11, CTX-M-14, DHA-1): >256 µg/mL
- MIC ([1]; strain KPN UFR222, genotype DHA-2): >256 µg/mL
- MIC ([1]; strain KPN UFR227O, genotype TEM-x, SHV-x, CTX-M-x): >256 µg/mL
- MIC ([2]; strain ECO 4133, genotype TEM-30, OXA-1): 16 µg/mL
- MIC ([2]; strain ECO 5302, genotype TEM-1, OXA-1): 32 µg/mL
- MIC ([2]; strain ECO 131119, genotype TEM-1, OXA-48): 8 µg/mL
- MIC ([2]; strain ECO 180070, genotype TEM-1, CTX-M-15): >256 µg/mL
- MIC ([2]; strain ECO 190314, genotype CTX-M-1): >256 µg/mL
- MIC ([2]; strain ECO 190317, genotype TEM-1, SHV-12, CTX-M-15, OXA-1): >512 µg/mL
- MIC ([2]; strain ECO 190457, genotype CTX-M-15, OXA-1): >256 µg/mL
- MIC ([2]; strain ECO 190549, genotype CTX-M-1): >256 µg/mL
- MIC ([2]; strain ECO 200159, genotype TEM-1, CTX-M-14): >256 µg/mL
- MIC ([2]; strain ECO 200259, genotype CTX-M-14): >256 µg/mL
- MIC ([2]; strain ECO 200344, genotype CTX-M-1): >256 µg/mL
- MIC ([2]; strain ECO 260096, genotype CTX-M-132): >256 µg/mL
- MIC ([2]; strain ECO 260304, genotype CTX-M-15): >256 µg/mL
- MIC ([2]; strain ECO 260508, genotype TEM-1, CTX-M-15, OXA-1): >256 µg/mL
- MIC ([2]; strain ECO RGN238, genotype OXA-1): 16 µg/mL
- MIC ([2]; strain ECO UFR15, genotype TEM-1, OXA-48): 16 µg/mL
- MIC ([2]; strain ECO UFR16, genotype TEM-1, CTX-M-15, OXA-1, OXA-48): >256 µg/mL
- MIC ([2]; strain ECO UFR17, genotype TEM-1, CTX-M-15, CMY-2, OXA-1, OXA-181): >256 µg/mL
- MIC ([2]; strain ECO UFR18, genotype CTX-M-15, OXA-204): >256 µg/mL
- MIC ([2]; strain ECO UFR19, genotype CTX-M-15, CMY-2, OXA-1, OXA-204): >256 µg/mL
- MIC ([2]; strain ECO UFR20, genotype SHV-1, CTX-M-15, OXA-1, OXA-232): >256 µg/mL
- MIC ([2]; strain ECO UFR39, genotype CTX-M-15, NDM-1): >256 µg/mL
- MIC ([2]; strain ECO UFR61O, genotype TEM-1, KPC-2): >256 µg/mL
- MIC ([2]; strain ECO UFR62, genotype TEM-1, CTX-M-9, KPC-2): >256 µg/mL
- MIC ([2]; strain ECO UFR74, genotype SHV-1, DHA-1): >256 µg/mL
- MIC ([2]; strain ECO UFR86, genotype ompC-, ompF-): 64 µg/mL
- MIC ([2]; strain ECO UFR174, genotype TEM-1, KPC-2, OXA-1): >256 µg/mL
- MIC ([2]; strain ECO UFR175, genotype TEM-1, KPC-2, OXA-9): >256 µg/mL
- MIC ([2]; strain ECO UFR176, genotype KPC-3, OXA-9*): >256 µg/mL
- MIC ([2]; strain ECO UFR184, genotype CTX-M-15, CMY-4, OXA-1, OXA-204): >256 µg/mL
- MIC ([2]; strain ECO UFR185, genotype OXA-48): >256 µg/mL
- MIC ([2]; strain ECO UFR186, genotype TEM-1, CTX-M-14, OXA-48): >256 µg/mL
- MIC ([2]; strain ECO UFR187, genotype CTX-M-15, OXA-48): >256 µg/mL
- MIC ([2]; strain ECO UFR189, genotype TEM-1, CTX-M-15, OXA-48): >256 µg/mL
- MIC ([2]; strain ECO UFR190, genotype CTX-M-24, OXA-48): >256 µg/mL
- MIC ([2]; strain ECO UFR191, genotype TEM-1, CTX-M-24, OXA-48): >256 µg/mL
- MIC ([2]; strain ECO UFR207, genotype CTX-M-15): >256 µg/mL
- MIC ([2]; strain ECO UFR208, genotype SHV-12): >256 µg/mL
- MIC ([2]; strain ECO UFR209, genotype TEM-1, CTX-M-15): >256 µg/mL
- MIC ([2]; strain ECO UFR210, genotype SHV-12): >256 µg/mL
- MIC ([2]; strain ECO UFR211, genotype TEM-24): 64 µg/mL
- MIC ([2]; strain ECO UFR212, genotype CMY-2): >256 µg/mL
- MIC ([2]; strain ECO UFR218, genotype TEM-1, SHV-1, CTX-M-15): >256 µg/mL
